Source: article PMC11003488 (Journal of Enzyme Inhibition and Medicinal Chemistry, 2023)
Read-outs that look alike come from different tables or passages of the source.

Legend:
OVCAR-3 = assay: NCI-60 SRB growth inhibition, one-dose and five-dose; format: cell-based; conditions: Homo sapiens
SF-268 = assay: as above; format: cell-based; conditions: Homo sapiens
BT-549 = assay: as above; format: cell-based; conditions: Homo sapiens
SR = assay: as above; format: cell-based; conditions: Homo sapiens
A498 = assay: as above; format: cell-based; conditions: Homo sapiens
MDA-MB-435 = assay: as above; format: cell-based; conditions: Homo sapiens
RPMI-8226 = assay: as above; format: cell-based; conditions: Homo sapiens
HL-60(TB) = assay: cells; format: cell-based; conditions: Homo sapiens
HT29 = assay: NCI-60 SRB growth inhibition, one-dose and five-dose; format: cell-based; conditions: Homo sapiens
M14 = assay: as above; format: cell-based; conditions: Homo sapiens
MALME-3M = assay: as above; format: cell-based; conditions: Homo sapiens
COLO 205 = assay: as above; format: cell-based; conditions: Homo sapiens
CAKI-1 = assay: as above; format: cell-based; conditions: Homo sapiens
KM12 = assay: as above; format: cell-based; conditions: Homo sapiens
IGROV1 = assay: as above; format: cell-based; conditions: Homo sapiens
MCF7 = assay: as above; format: cell-based; conditions: Homo sapiens
OVCAR-4 = assay: as above; format: cell-based; conditions: Homo sapiens
MDA-MB-468 = assay: as above; format: cell-based; conditions: Homo sapiens
SK-MEL-5 = assay: as above; format: cell-based; conditions: Homo sapiens
HOP-92 = assay: as above; format: cell-based; conditions: Homo sapiens
[1] = test system: NCI 60-cell line panel (full panel); assay: NCI-60 SRB growth inhibition, full panel mean / MG-MID; format: cell-based, human; conditions: for GI50: Homo sapiens, 60 cell
T-47D = assay: NCI-60 SRB growth inhibition, one-dose and five-dose; format: cell-based; conditions: Homo sapiens, T47D
ACHN = assay: as above; format: cell-based; conditions: Homo sapiens
OVCAR-5 = assay: as above; format: cell-based; conditions: Homo sapiens
OVCAR-8 = assay: as above; format: cell-based; conditions: Homo sapiens
SNB-19 = assay: as above; format: cell-based; conditions: Homo sapiens
UACC-62 = assay: as above; format: cell-based; conditions: Homo sapiens
NCI/ADR-RES = assay: as above; format: cell-based; conditions: Homo sapiens
TK-10 = assay: as above; format: cell-based; conditions: Homo sapiens
NCI-H226 = assay: as above; format: cell-based; conditions: Homo sapiens
HS 578 T = assay: as above; format: cell-based; conditions: Homo sapiens
NCI-H460 = assay: as above; format: cell-based; conditions: Homo sapiens
U251 = assay: as above; format: cell-based; conditions: Homo sapiens
SN12C = assay: as above; format: cell-based; conditions: Homo sapiens
CCRF-CEM = assay: as above; format: cell-based; conditions: Homo sapiens
HCT-116 = assay: as above; format: cell-based; conditions: Homo sapiens
786-0 = assay: as above; format: cell-based; conditions: Homo sapiens
SNB-75 = assay: as above; format: cell-based; conditions: Homo sapiens
A549/ATCC = assay: as above; format: cell-based; conditions: Homo sapiens
DU-145 = assay: as above; format: cell-based; conditions: Homo sapiens
SW-620 = assay: as above; format: cell-based; conditions: Homo sapiens
HCT-15 = assay: as above; format: cell-based; conditions: Homo sapiens
[2] = read-out: percent growth inhibition

`COc1ccc(CNc2cccc(C(=O)/C=C/c3ccc(NC(C)=O)cc3)c2)cc1OC` [Compound 5h, (E)-N-(4–(3-(3-((3,4-dimethoxybenzyl)amino)phenyl)-3-oxoprop-1-en-1-yl)phenyl) acetamide] showed a GI50 (OVCAR-3; OVCAR-3) of 2.28 µM, an inhibition at 10 µM (OVCAR-3; OVCAR-3, read-out: percent growth inhibition) of 114% and a GI50 (SF-268; SF-268) of 3.01 µM. For the same compound, the inhibition at 10 µM (SF-268; SF-268, read-out: percent growth inhibition) was 64%, the GI50 (BT-549; BT-549) was 1.54 µM and the inhibition at 10 µM (BT-549; BT-549, read-out: percent growth inhibition) was 126%. The GI50 (SR) was 1.93 µM, the inhibition at 10 µM (SR; [2]) was 98.3% and the GI50 (A498; A498) was 13.7 µM. For the same compound, the inhibition at 10 µM (A498; A498, read-out: percent growth inhibition) was 11.5%, the GI50 (MDA-MB-435; MDA-MB-435) was 2.22 µM and the inhibition at 10 µM (MDA-MB-435; MDA-MB-435, read-out: percent growth inhibition) was 133%. The GI50 (RPMI-8226; RPMI-8226) was 1.79 µM, the inhibition at 10 µM (RPMI-8226; RPMI-8226, read-out: percent growth inhibition) was 112% and the GI50 (HL-60(TB); HL-60) was 2.54 µM. It also gave an inhibition at 10 µM (HL-60(TB); HL-60, read-out: percent growth inhibition) of 78.8%, a GI50 (HT29; HT-29) of 3.46 µM and an inhibition at 10 µM (HT29; HT-29, read-out: percent growth inhibition) of 172%. The GI50 (M14; M14) was 1.72 µM, the inhibition at 10 µM (M14; M14, read-out: percent growth inhibition) was 142% and the GI50 (MALME-3M) was 3.5 µM. The inhibition at 10 µM (MALME-3M; [2]) was 151%, the GI50 (COLO 205; COLO 205) was 9.39 µM and the inhibition at 10 µM (COLO 205; COLO 205, read-out: percent growth inhibition) was 145%. The GI50 (CAKI-1; CAKI-1) was 3.15 µM, the inhibition at 10 µM (CAKI-1; CAKI-1, read-out: percent growth inhibition) was 56.4% and the GI50 (KM12; KM12) was 1.94 µM. The inhibition at 10 µM (KM12; KM12, read-out: percent growth inhibition) was 159%, the GI50 (IGROV1; IGROV-1) was 4.54 µM and the inhibition at 10 µM (IGROV1; IGROV-1, read-out: percent growth inhibition) was 96.8%. The GI50 (MCF7; MCF7) was 2.54 µM, the inhibition at 10 µM (MCF7; MCF7, read-out: percent growth inhibition) was 119% and the GI50 (OVCAR-4; OVCAR-4) was 3.09 µM. It also gave an inhibition at 10 µM (OVCAR-4; OVCAR-4, read-out: percent growth inhibition) of 89.4%, a GI50 (MDA-MB-468; MDA-MB-468) of 2.44 µM and an inhibition at 10 µM (MDA-MB-468; MDA-MB-468, read-out: percent growth inhibition) of 166%. For the same compound, the GI50 (SK-MEL-5; SK-MEL-5) was 4.13 µM, the inhibition at 10 µM (SK-MEL-5; SK-MEL-5, read-out: percent growth inhibition) was 126% and the GI50 (HOP-92; HOP-92) was 4.02 µM. The inhibition at 10 µM (HOP-92; HOP-92, read-out: percent growth inhibition) was 65.8%, the GI50 ([1]; read-out: Full panel GI50 mean) was 4.48 µM and the GI50 ([1]; read-out: Full panel MG-MID GI50) was 4.48 µM. The “Full panel Mean GI %” value ([1]; mean over NCI-60 panel, single dose 10 µM) was 108.5%, the GI50 (T-47D) was 5.04 µM and the inhibition at 10 µM (T-47D; [2]) was 104%. The GI50 (ACHN) was 2.07 µM, the inhibition at 10 µM (ACHN; [2]) was 162% and the GI50 (OVCAR-5; OVCAR-5) was 4.53 µM. The inhibition at 10 µM (OVCAR-5; OVCAR-5, read-out: percent growth inhibition) was 84.1%, the GI50 (OVCAR-8; OVCAR-8) was 2.97 µM and the inhibition at 10 µM (OVCAR-8; OVCAR-8, read-out: percent growth inhibition) was 95.7%. It also gave a GI50 (SNB-19; SNB-19) of 5.19 µM, an inhibition at 10 µM (SNB-19; SNB-19, read-out: percent growth inhibition) of 56.9% and a GI50 (UACC-62; UACC-62) of 3.9 µM. It also gave an inhibition at 10 µM (UACC-62; UACC-62, read-out: percent growth inhibition) of 130%, a GI50 (NCI/ADR-RES) of 2.86 µM and a GI50 (TK-10; TK-10) of 4.09 µM. For the same compound, the inhibition at 10 µM (TK-10; TK-10, read-out: percent growth inhibition) was 60.7%, the GI50 (NCI-H226; NCI-H226) was 12.4 µM and the inhibition at 10 µM (NCI-H226; NCI-H226, read-out: percent growth inhibition) was 21.2%. The GI50 (HS 578 T) was 3.07 µM, the inhibition at 10 µM (HS 578 T; [2]) was 99.1% and the GI50 (NCI-H460; NCI-H460) was 2.1 µM. It also gave an inhibition at 10 µM (NCI-H460; NCI-H460, read-out: percent growth inhibition) of 143%, a GI50 (U251; U-251) of 2.88 µM and an inhibition at 10 µM (U251; U-251, read-out: percent growth inhibition) of 150%. The GI50 (SN12C) was 2.48 µM, the inhibition at 10 µM (SN12C; [2]) was 135% and the GI50 (CCRF-CEM) was 2.74 µM. It also gave an inhibition at 10 µM (CCRF-CEM; [2]) of 84.5%, a GI50 (HCT-116; HCT-116, HCT-116 (colon cancer), five-dose assay) of 1.95 µM and a GI50 (HCT-116; HCT-116, HCT-116, five-dose screening) of 0.78 µM. It also gave an inhibition at 10 µM (HCT-116; HCT-116, read-out: percent growth inhibition) of 174%, a GI50 (786-0; 786-0) of 1.57 µM and an inhibition at 10 µM (786-0; 786-0, read-out: percent growth inhibition) of 155%. It also gave a GI50 (SNB-75; SNB-75) of 10.1 µM, an inhibition at 10 µM (SNB-75; SNB-75, read-out: percent growth inhibition) of 62.8% and a GI50 (A549/ATCC; A549) of 23.6 µM. For the same compound, the inhibition at 10 µM (A549/ATCC; A549, read-out: percent growth inhibition) was 77.3%, the GI50 (DU-145; DU-145) was 4.25 µM and the inhibition at 10 µM (DU-145; DU-145, read-out: percent growth inhibition) was 75.4%. It also gave a GI50 (SW-620; SW-620) of 2 µM, an inhibition at 10 µM (SW-620; SW-620, read-out: percent growth inhibition) of 157% and a GI50 (HCT-15; HCT-15) of 1.8 µM. It also gave an inhibition at 10 µM (HCT-15; HCT-15, read-out: percent growth inhibition) of 125%.
